Measurements reported in patent US20060069132A1, “Azolecarboxamide herbicides” (priority 2004, published 2006).

Key:
winter barley = test: Test C postemergence herbicide test; format: in vivo, Hordeum vulgare
Procedure, shortened: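 Visual rating, 0 (no effect) to 100 (complete control), vs. controls at 12–14 d in greenhouse. Postemergence: 1–4-leaf plants, 2–18 cm. Paddy: flooded, barnyardgrass at 2-leaf stage.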

blackgrass = test: Test C postemergence herbicide test; format: in vivo, Alopecurus myosuroides
Procedure, shortened: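 Postemergence sprays applied to plants 2 to 18 cm tall (1- to 4-leaf stage); paddy species grown to 2-leaf stage under flooding. After 12 to 14 days in greenhouse, visual rating versus untreated controls on 0–100 scale (0 no effect, 100 complete control).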

pitted morningglory = test: Test E pre-/postemergence herbicide test; format: in vivo, Ipomoea lacunosa; details: Preemergence
Procedure, shortened: (§1)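 Herbicidal effect scored visually, 0–100 scale, versus controls. Treatments: preemergence on planted seed; postemergence on 2–18 cm seedlings. Greenhouse, 12 to 14 days.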

purple nutsedge = test: Test E pre-/postemergence herbicide test; format: in vivo, Cyperus rotundus; details: Preemergence
Procedure, shortened: as §1

dallisgrass = test: Test E pre-/postemergence herbicide test; format: in vivo, Paspalum dilatatum; details: Preemergence
Procedure, shortened: as §1

broadleaf signalgrass = test: Test E pre-/postemergence herbicide test; format: in vivo, Brachiaria platyphylla; details: Preemergence
Procedure, shortened: as §1

tropical spiderwort = test: Test E pre-/postemergence herbicide test; format: in vivo, Commelina benghalensis; details: Preemergence
Procedure, shortened: as §1

field bindweed = test: Test E pre-/postemergence herbicide test; format: in vivo, Convolvulus arvensis; details: Preemergence
Procedure, shortened: as §1

Russian thistle = test: Test E pre-/postemergence herbicide test; format: in vivo, Salsola kali; details: Preemergence
Text: (§2) Seeds of plant species selected from bipinnate beggarticks (Bidens bipinnata L.), hairy beggarticks (Bidens radiata Thuill.), bermudagrass (Cynodon dactylon (L.) Pers.), Surinam grass (Urochloa decumbens (Staph) R. D. Webster, previously named Brachiaria decumbens Stapf), large crabgrass (Digitaria sanguinalis (L.) Scop.), green foxtail (Setaria viridis (L.) P. Beauv.), goosegrass (Eleusine indica (L.) Gaertn.), johnsongrass (Sorghum halepense (L.) Pers.), kochia (Kochia scoparia (L.) Schrad.), pitted morningglory (Ipomoea lacunosa L.), purple nutsedge (Cyperus rotundus L.), common ragweed (Ambrosia elatior L.), mustard (Brassica nigra (L.) W. D. J. Koch), guineagrass (Panicum maximum Jacq.), dallisgrass (Paspalum dilatatum Poir.), barnyardgrass (Echinochloa crus-galli (L). P. Beauv.), southern sandbur (Cenchrus echinatus L.), common sowthistle (Sonchus oleraceous L.), prickly sida (Sida spinosa L.), Italian ryegrass (Lolium multiflorum Lam.), common purslane (Portulaca oleracea L.), broadleaf signalgrass (Brachiaria platyphylla (Griseb.) Nash), common groundsel (Senecio vulgaris L.), common chickweed (Stellaria media (L.) Vill/Cyr.), tropical spiderwort (Commelina benghalensis L.), annual bluegrass (Poa annua L.), downy bromegrass (Bromus tectorum L.), itchgrass (Rottboellia cochinchinensis (L.) L.f.), quackgrass (Elytrigia repens (L.) Nevski), Canada horseweed (Erigeron Canadensis L.), field bindweed (Convolvulus arvensis L.), spotted spurge (Euphorbia maculata L.), common mallow (Malva sylvestris (=s silvestris) L.), and Russian thistle (Salsola kali L. ssp. Ruthenica (Iljin) Soo) were planted and treated preemergence with test chemicals formulated in a non-phytotoxic solvent mixture which included a surfactant.
(§3) At the same time, plants selected from these weed species were treated with postemergence applications of some of the test chemicals formulated in the same manner. Plants ranged in height from 2 to 18 cm (1- to 4-leaf stage) for postemergence treatments. Treated plants and controls were maintained in a greenhouse for 12 to 14 days, after which time all species were compared to controls and visually evaluated. Plant response ratings, summarized in Table E, are based on a scale of 0 to 100 where 0 is no effect and 100 is complete control. A dash (-) response means no test result.

bipinnate beggarticks = test: Test E pre-/postemergence herbicide test; format: in vivo, Bidens bipinnata; details: Preemergence
Text: as §2, §3

[1] = Postemergence, 250 g ai/ha, scale 0 to 100, 0 no effect, 100 complete control
[2] = postemergence, 31 g ai/ha, scale 0 to 100
[3] = 250 g ai/ha, scale 0 (no effect) to 100 (complete control)
[4] = 500 g ai/ha, scale 0 (no effect) to 100 (complete control)

Compound	Plant response rating, Morningglory (pitted morningglory; 62 g ai/ha, scale 0 to 100)	Plant response rating, Morningglory (pitted morningglory; 125 g ai/ha, scale 0 to 100)	Plant response rating, Morningglory (pitted morningglory; [3])	Plant response rating, Dallisgrass (dallisgrass; 62 g ai/ha, scale 0 to 100)	Plant response rating, Dallisgrass (dallisgrass; 125 g ai/ha, scale 0 to 100)	Plant response rating, Dallisgrass (dallisgrass; [3])	Plant response rating, Signalgrass (broadleaf signalgrass; 62 g ai/ha, scale 0 to 100)	Plant response rating, Signalgrass (broadleaf signalgrass; 125 g ai/ha, scale 0 to 100)	Plant response rating, Signalgrass (broadleaf signalgrass; [3])	Plant response rating, Spiderwort (tropical spiderwort; 125 g ai/ha, scale 0 to 100)	Plant response rating, Spiderwort (tropical spiderwort; [3])	Plant response rating, Bindweed, Field (field bindweed; 62 g ai/ha, scale 0 to 100)	Plant response rating, Bindweed, Field (field bindweed; 125 g ai/ha, scale 0 to 100)	Plant response rating, Bindweed, Field (field bindweed; [3])	Plant response rating, Thistle (Russian thistle; 125 g ai/ha, scale 0 to 100)	Plant response rating, Beggarticks, Bip. (bipinnate beggarticks; [3])	also measured
CCN1N=C(C(C)(C)C)CC1C(=O)Nc1cc(C(=O)N(C)C)ccc1F (centres unmarked) [Compound 268, N-[5-[(dimethylamino)carbonyl]-2-fluorophenyl]-3-(1,1-dimethylethyl)-1-ethyl-4,5-dihydro-1H-pyrazole-5-carboxamide]	10	10	40	70	80	85	20	60	80	70	85	0	20	40	60	–	Plant response rating, Barley, Winter (winter barley; Postemergence, 125 g ai/ha, scale 0 to 100, 0 no effect, 100 complete control): 15; Plant response rating, Barley, Winter (winter barley; [1]): 30; Plant response rating, Barley, Winter (winter barley; [2]): 0; Plant response rating, Barley, Winter (winter barley; postemergence, 62 g ai/ha, scale 0 to 100 (0 no effect, 100 complete control)): 0; Plant response rating, Blackgrass (blackgrass; [1]): 60; Plant response rating, Blackgrass (blackgrass; postemergence, 125 g ai/ha, scale 0 to 100): 45; Plant response rating, Blackgrass (blackgrass; [2]): 0; Plant response rating, Blackgrass (blackgrass; postemergence, 62 g ai/ha, scale 0 to 100): 30; Plant response rating, Morningglory (pitted morningglory; [4]): 60; Plant response rating, Nutsedge, Purple (purple nutsedge; 62 g ai/ha, scale 0 to 100): 50; Plant response rating, Nutsedge, Purple (purple nutsedge; 125 g ai/ha, scale 0 to 100): 70; Plant response rating, Nutsedge, Purple (purple nutsedge; [3]): 85; Plant response rating, Nutsedge, Purple (purple nutsedge; [4]): 85; Plant response rating, Dallisgrass (dallisgrass; [4]): 85; Plant response rating, Signalgrass (broadleaf signalgrass; [4]): 80; Plant response rating, Spiderwort (tropical spiderwort; [4]): 90; Plant response rating, Bindweed, Field (field bindweed; [4]): 70; Plant response rating, Thistle (Russian thistle; [4]): 100
CCc1nn(C(C)C)nc1C(=O)Nc1cccc(C(=O)N2CCCCC2)c1 [Compound 385]	10	10	10	10	30	50	10	20	20	0	0	10	10	20	50	30	Plant response rating, Beggarticks, Bip. (bipinnate beggarticks; 62 g ai/ha, scale 0 to 100): 0; Plant response rating, Beggarticks, Bip. (bipinnate beggarticks; 125 g ai/ha, scale 0 to 100): 30
CCc1nn(C(C)C)nc1C(=O)Nc1cccc(C(=O)N(C)CC)c1 [Compound 386]	–	20	40	–	70	75	–	30	85	10	70	–	20	60	–	40	–
